Assay results published in patent US10681909B2, “Herbicidal triazoles” (FMC Corporation, priority 2014, dated 2020).

Columns and labels:
kochia = experiment: Test C postemergence; assay type: in vivo, Kochia scoparia
How it was run: (§1)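 Plants are treated postemergence at the 1- to 4-leaf stage (2 to 18 cm), grown in sphagnum peat/vermiculite medium; preemergence treatment is applied to seed planted in loam soil with sand. Both use test chemical in a non-phytotoxic solvent mixture with surfactant.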

chickweed = experiment: Test C postemergence; assay type: in vivo, Stellaria media
How it was run: as §1

morningglory = experiment: Test C postemergence; assay type: in vivo, Ipomoea coccinea
How it was run: as §1

velvetleaf = experiment: Test A postemergence; assay type: in vivo, Abutilon theophrasti; details: Abutilon theophrasti, post-emergence, 240 h, 0 to 100 scale (0 no effect, 100 complete control), approx. 10 d, read-out: Plant response rating, Velvetleaf
How it was run: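 Test chemicals in a non-phytotoxic solvent with surfactant were applied as a directed soil spray preemergence to seeds sown in loam/sand. Postemergence sprays went to plants 2–10 cm tall at the one- to two-leaf stage. A dash means no result.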

oat, wild = experiment: Test C postemergence; assay type: in vivo, Avena fatua
How it was run: as §1

crabgrass, large = experiment: Test C preemergence; assay type: in vivo, Digitaria sanguinalis; details: for Plant response rating (scale of 0 to 100 where 0 is no effect and 100 is complete control): Crabgrass, Large, preemergence; for Crabgrass, Large plant response rating (0 to 100): Preemergence, visual rating after 13 to 15 d
How it was run: as §1

ragweed = experiment: Test C postemergence; assay type: in vivo, Ambrosia elatior
How it was run: as §1

barnyardgrass [1] = experiment: Test B flooded paddy test; assay type: in vivo, Echinochloa crus-galli; details: Echinochloa crus-galli, 360 h, 125 g ai/ha, applied to paddy water at 2-leaf stage, visual rating after 13 to 15 d, scale 0 (no effect) to 100 (complete control), read-out: Plant response rating, Barnyardgrass, Flood
How it was run: (§2)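 Pots were flooded to 3 cm above the soil at treatment, and compounds were applied directly into the paddy water. That depth was held throughout. After 13 to 15 d in a greenhouse, plants were rated visually against untreated controls.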

johnsongrass = experiment: Test C postemergence; assay type: in vivo, Sorghum halepense
How it was run: as §1

blackgrass = experiment: Test C postemergence; assay type: in vivo, Alopecurus myosuroides
How it was run: as §1

ducksalad = experiment: Test B flooded paddy test; assay type: in vivo, Heteranthera limosa; details: Heteranthera limosa, 360 h, 125 g ai/ha, applied to paddy water at 2-leaf stage, visual rating after 13 to 15 d, scale 0 (no effect) to 100 (complete control), read-out: Plant response rating, Ducksalad, Flood
How it was run: as §2

barnyardgrass [2] = experiment: Test C postemergence; assay type: in vivo, Echinochloa crus-galli
How it was run: as §1

foxtail, giant = experiment: Test C postemergence; assay type: in vivo, Setaria faberii
How it was run: as §1

sedge, umbrella = experiment: Test B flooded paddy test; assay type: in vivo, Cyperus difformis; details: Cyperus difformis, 360 h, 125 g ai/ha, applied to paddy water at 2-leaf stage, visual rating after 13 to 15 d, scale 0 (no effect) to 100 (complete control), read-out: Plant response rating, Sedge, Umbrella, Flood
How it was run: as §2

In the case of `COc1nc(-c2ccc(F)cc2)nn1Cc1ccnc(C(F)(F)F)c1` [Compound 9, 4-[[3-(4-fluorophenyl)-5-methoxy-1H-1,2,4-triazol-1-yl]methyl]-2-(trifluoromethyl)pyridine], the “Plant response rating (scale of 0 to 100 where 0 is no effect and 100 is complete control)” value (kochia; 16 g ai/ha) is reported as 95, the “Plant response rating (scale of 0 to 100 where 0 is no effect and 100 is complete control)” value (kochia; 31 g ai/ha) is reported as 90 and the “Plant response rating (scale of 0 to 100 where 0 is no effect and 100 is complete control)” value (kochia; 62 g ai/ha) is reported as 90. The “Plant response rating (scale of 0 to 100 where 0 is no effect and 100 is complete control)” value (kochia; 125 g ai/ha) was 90, the “Plant response rating (scale of 0 to 100 where 0 is no effect and 100 is complete control)” value (chickweed; 16 g ai/ha) was 70 and the “Plant response rating (scale of 0 to 100 where 0 is no effect and 100 is complete control)” value (chickweed; 31 g ai/ha) was 75. For the same molecule, the “Plant response rating (scale of 0 to 100 where 0 is no effect and 100 is complete control)” value (chickweed; 62 g ai/ha) was 75, the “Plant response rating (scale of 0 to 100 where 0 is no effect and 100 is complete control)” value (chickweed; 125 g ai/ha) was 80 and the “Plant response rating (scale of 0 to 100 where 0 is no effect and 100 is complete control)” value (morningglory; 16 g ai/ha) was 70. The “Plant response rating (scale of 0 to 100 where 0 is no effect and 100 is complete control)” value (morningglory; 31 g ai/ha) was 85, the “Plant response rating (scale of 0 to 100 where 0 is no effect and 100 is complete control)” value (morningglory; 62 g ai/ha) was 80 and the “Plant response rating (scale of 0 to 100 where 0 is no effect and 100 is complete control)” value (morningglory; 125 g ai/ha) was 75. The pest or weed control at 125 g/ha (velvetleaf; 125 g ai/ha) was 50%, the pest or weed control at 500 g/ha (velvetleaf; 500 g ai/ha) was 90% and the “Plant response rating (scale of 0 to 100 where 0 is no effect and 100 is complete control)” value (oat, wild; 16 g ai/ha) was 5. The “Plant response rating (scale of 0 to 100 where 0 is no effect and 100 is complete control)” value (oat, wild; 31 g ai/ha) was 5, the “Plant response rating (scale of 0 to 100 where 0 is no effect and 100 is complete control)” value (oat, wild; 62 g ai/ha) was 5 and the “Plant response rating (scale of 0 to 100 where 0 is no effect and 100 is complete control)” value (oat, wild; 125 g ai/ha) was 10. The “Plant response rating (scale of 0 to 100 where 0 is no effect and 100 is complete control)” value (crabgrass, large; 125 g ai/ha) was 100, the “Plant response rating (scale of 0 to 100 where 0 is no effect and 100 is complete control)” value (crabgrass, large; 250 g ai/ha) was 100 and the “Crabgrass, Large plant response rating (0 to 100)” value (crabgrass, large; 31 g ai/ha) was 95. The “Crabgrass, Large plant response rating (0 to 100)” value (crabgrass, large; 62 g ai/ha) was 100, the “Plant response rating (scale of 0 to 100 where 0 is no effect and 100 is complete control)” value (ragweed; 16 g ai/ha) was 15 and the “Plant response rating (scale of 0 to 100 where 0 is no effect and 100 is complete control)” value (ragweed; 31 g ai/ha) was 25. The “Plant response rating (scale of 0 to 100 where 0 is no effect and 100 is complete control)” value (ragweed; 62 g ai/ha) was 25, the “Plant response rating (scale of 0 to 100 where 0 is no effect and 100 is complete control)” value (ragweed; 125 g ai/ha) was 50 and the pest or weed control at 125 g/ha (barnyardgrass [1]) was 0%. The “Plant response rating (scale of 0 to 100 where 0 is no effect and 100 is complete control)” value (johnsongrass; 16 g ai/ha) was 0, the “Plant response rating (scale of 0 to 100 where 0 is no effect and 100 is complete control)” value (johnsongrass; 31 g ai/ha) was 5 and the “Plant response rating (scale of 0 to 100 where 0 is no effect and 100 is complete control)” value (johnsongrass; 62 g ai/ha) was 5. The “Plant response rating (scale of 0 to 100 where 0 is no effect and 100 is complete control)” value (johnsongrass; 125 g ai/ha) was 10, the “Plant response rating (scale of 0 to 100 where 0 is no effect and 100 is complete control)” value (blackgrass; 16 g ai/ha) was 5 and the “Plant response rating (scale of 0 to 100 where 0 is no effect and 100 is complete control)” value (blackgrass; 31 g ai/ha) was 5. The “Plant response rating (scale of 0 to 100 where 0 is no effect and 100 is complete control)” value (blackgrass; 62 g ai/ha) was 5, the “Plant response rating (scale of 0 to 100 where 0 is no effect and 100 is complete control)” value (blackgrass; 125 g ai/ha) was 15 and the pest or weed control at 125 g/ha (ducksalad) was 20%. For the same molecule, the “Plant response rating (scale of 0 to 100 where 0 is no effect and 100 is complete control)” value (barnyardgrass [2]; 16 g ai/ha) was 5, the “Plant response rating (scale of 0 to 100 where 0 is no effect and 100 is complete control)” value (barnyardgrass [2]; 31 g ai/ha) was 10 and the “Plant response rating (scale of 0 to 100 where 0 is no effect and 100 is complete control)” value (barnyardgrass [2]; 62 g ai/ha) was 10. The “Plant response rating (scale of 0 to 100 where 0 is no effect and 100 is complete control)” value (barnyardgrass [2]; 125 g ai/ha) was 20, the “Plant response rating (scale of 0 to 100 where 0 is no effect and 100 is complete control)” value (foxtail, giant; 16 g ai/ha) was 10 and the “Plant response rating (scale of 0 to 100 where 0 is no effect and 100 is complete control)” value (foxtail, giant; 31 g ai/ha) was 15. The “Plant response rating (scale of 0 to 100 where 0 is no effect and 100 is complete control)” value (foxtail, giant; 62 g ai/ha) was 15, the “Plant response rating (scale of 0 to 100 where 0 is no effect and 100 is complete control)” value (foxtail, giant; 125 g ai/ha) was 20 and the pest or weed control at 125 g/ha (sedge, umbrella) was 80%.
